Data reported in patent publication US20110182850A1, “ORGANIC COMPOUNDS AND THEIR USES” (priority 2009, published 2011).

Each compound was assayed against T1, HCV NS3-4A serine protease (full-length NS3-4A protein, genotype 1a, strain HCV-1) (Hepatitis C virus genotype 1a, UniProt P26664) (assay: HCV NS3-4A protease assay). Conditions: Protease IC50.
T1 construct: using the full-length NS3-4A protein (genotype 1a, strain HCV-1)
Format: biochemical
Description: The inhibitory activity of certain compounds of Table A against HCV NS3-4A serine protease is determined in a homogenous assay using the full-length NS3-4A protein (genotype 1a, strain HCV-1) and a commercially available internally-quenched fluorogenic peptide substrate as described by Taliani, M., et al. 1996 Anal. Biochem. 240:60-67, which is incorporated by reference in its entirety.

T1 sequence (P26664 1658-1711): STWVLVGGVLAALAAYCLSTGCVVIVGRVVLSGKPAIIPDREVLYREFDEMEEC
T1 sequence (P26664 1027-1657): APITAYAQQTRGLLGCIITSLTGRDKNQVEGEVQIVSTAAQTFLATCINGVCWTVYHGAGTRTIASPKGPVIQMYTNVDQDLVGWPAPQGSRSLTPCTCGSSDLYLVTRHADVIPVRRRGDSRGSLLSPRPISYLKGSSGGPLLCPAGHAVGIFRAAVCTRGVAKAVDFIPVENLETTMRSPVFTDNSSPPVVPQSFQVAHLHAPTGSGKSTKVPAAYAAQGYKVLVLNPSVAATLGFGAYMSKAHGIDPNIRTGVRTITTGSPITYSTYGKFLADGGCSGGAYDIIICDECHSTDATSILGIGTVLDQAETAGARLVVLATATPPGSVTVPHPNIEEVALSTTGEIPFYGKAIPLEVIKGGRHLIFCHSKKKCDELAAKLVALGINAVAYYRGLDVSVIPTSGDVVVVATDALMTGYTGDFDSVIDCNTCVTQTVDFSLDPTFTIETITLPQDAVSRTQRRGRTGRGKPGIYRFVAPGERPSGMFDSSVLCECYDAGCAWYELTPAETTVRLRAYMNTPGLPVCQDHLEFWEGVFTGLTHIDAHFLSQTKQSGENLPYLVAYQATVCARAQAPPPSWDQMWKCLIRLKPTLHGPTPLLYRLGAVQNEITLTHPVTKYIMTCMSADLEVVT

Compared with C=C[C@@H]1C[C@]1(NC(=O)[C@@H]1C[C@@]2(CN1C(=O)[C@@H](NC(=O)[C@@H](NC(=O)c1nc3ccccc3[nH]1)C(C)(C)C)C(C)(C)C)C(C)(C)C21CCC1)C(=O)NS(=O)(=O)C1CC1 [Compound 120, (5R,8S)-7-[(2S)-2-({(2S)-2-[(1H-benzimidazol-2-ylcarbonyl)amino]-3,3-dimethylbutanoyl}amino)-3,3-dimethylbutanoyl]-N-{(1R,2S)-1-[(cyclopropylsulfonyl)carba-moyl]-2-vinylcyclopropyl}-10,10-dimethyl-7-azadispiro[3.0.4.1]decane-8-carboxamide], C=C[C@@H]1C[C@]1(NC(=O)[C@@H]1C[C@@]2(CN1C(=O)[C@@H](NC(=O)[C@@H](NC(=O)c1ncc[nH]1)C(C)(C)C)C(C)(C)C)C(C)(C)C21CCC1)C(=O)NS(=O)(=O)C1CC1 [Compound 122, (5R,8S)-N-{(1R,2S)-1-[(cyclopropylsulfonyl)carba-moyl]-2-vinylcyclopropyl}-7-[(2S)-2-({(2S)-2-[(1H-imidazol-2-ylcarbonyl)amino]-3,3-dimethylbutanoyl}amino)-3,3-dimethylbutanoyl]-10,10-dimethyl-7-azadispiro[3.0.4.1]decane-8-carboxamide] is 4.3-fold higher in IC50: 0.7 nM for the first, 3 nM for the second.

Going from C=C[C@@H]1C[C@]1(NC(=O)[C@@H]1C[C@@]2(CN1C(=O)[C@@H](NC(=O)[C@@H](NC(=O)c1ccno1)C(C)(C)C)C(C)(C)C)C(C)(C)C21CCC1)C(=O)NS(=O)(=O)C1CC1 [Compound 121, (5R,8S)-N-{(1R,2S)-1-[(cyclopropylsulfonyl)carba-moyl]-2-vinylcyclopropyl}-7-[(2S)-2-({(2S)-2-[(isoxazol-5-ylcarbonyl)amino]-3,3-dimethylbutanoyl}amino)-3,3-dimethylbutanoyl]-10,10-dimethyl-7-azadispiro[3.0.4.1]decane-8-carboxamide] to C=C[C@@H]1C[C@]1(NC(=O)[C@@H]1C[C@@]2(CN1C(=O)[C@@H](NC(=O)[C@@H](NC(=O)c1c(C)n[nH]c1C)C(C)(C)C)C(C)(C)C)C(C)(C)C21CCC1)C(=O)NS(=O)(=O)C1CC1 [Compound 136, (5R,8S)-N-{(1R,2S)-1-[(cyclopropylsulfonyl)carba-moyl]-2-vinylcyclopropyl}-7-[(2S)-2-{[(2S)-2-{[(3,5-dimethyl-1H-pyrazol-4-yl)carbonyl]amino}-3,3-dimethylbutanoyl]amino}-3,3-dimethylbutanoyl]-10,10-dimethyl-7-azadispiro[3.0.4.1]decane-8-carboxamide], the IC50 rises from 9 nM to 20 nM (2.2-fold).

Going from C=C[C@H]1C[C@@]1(NC(=O)C1C[C@@]2(CN1C(=O)[C@@H](NC(=O)[C@@H](NC(=O)C1CCN1C(C)(C)C)C(C)(C)C)C(C)(C)C)C(C)(C)C21CCC1)C(=O)NS(=O)(=O)C1CC1 (stereo partly drawn) [Compound 123, (5R)-7-[(2S)-2-{[(2S)-2-{[(1-tert-butylazetidin-2-yl)carbonyl]amino}-3,3-dimethylbutanoyl]amino}-3,3-dimethylbutanoyl]-N-{(1S,2R)-1-[(cyclopropylsulfonyl)carba-moyl]-2-vinylcyclopropyl}-10,10-dimethyl-7-azadispiro[3.0.4.1]decane-8-carboxamide] to C=C[C@@H]1C[C@]1(NC(=O)[C@@H]1C[C@@]2(CN1C(=O)[C@@H](NC(=O)[C@@H](NC(=O)[C@@H]1CCN1C(C)C)C(C)(C)C)C(C)(C)C)C(C)(C)C21CCC1)C(=O)NS(=O)(=O)C1CC1 [Compound 131, (5R,8S)-N-{(1R,2S)-1-[(cyclopropylsulfonyl)carba-moyl]-2-vinylcyclopropyl}-7-[(2S)-2-{[(2S)-2-({[(2S)-1-isopropylazetidin-2-yl]carbonyl}amino)-3,3-dimethylbutanoyl]amino}-3,3-dimethylbutanoyl]-10,10-dimethyl-7-azadispiro[3.0.4.1]decane-8-carboxamide], the IC50 falls from 6 nM to 0.8 nM (7.5-fold). The second is the more potent here.

Going from C=C[C@@H]1C[C@]1(NC(=O)[C@@H]1C[C@@]2(CN1C(=O)[C@@H](NC(=O)C(NC(=O)c1ccccc1Nc1ccccc1)C1CCCCC1)C(C)(C)C)C(C)(C)C21CCC1)C(=O)NS(=O)(=O)C1CC1 (stereo partly drawn) [Compound 124, (5R,8S)-7-[(2S)-2-({[(2-anilinobenzoyl)amino](cyclo-hexyl)acetyl}amino)-3,3-dimethylbutanoyl]-N-{(1R,2S)-1-[(cyclopropylsulfonyl)carba-moyl]-2-vinylcyclopropyl}-10,10-dimethyl-7-azadispiro[3.0.4.1]decane-8-carboxamide] to C=C[C@@H]1C[C@]1(NC(=O)[C@@H]1C[C@@]2(CN1C(=O)[C@@H](NC(=O)C(NC(=O)c1cc3ccccc3[nH]1)C1CCCCC1)C(C)(C)C)C(C)(C)C21CCC1)C(=O)NS(=O)(=O)C1CC1 (stereo partly drawn) [Compound 125, (5R,8S)-7-[(2S)-2-({cyclohexyl[(1H-indol-2-ylcarbonyl)amino]acetyl}amino)-3,3-dimethylbutanoyl]-N-{(1R,2S)-1-[(cyclopropylsulfonyl)carba-moyl]-2-vinylcyclopropyl}-10,10-dimethyl-7-azadispiro[3.0.4.1]decane-8-carboxamide], the IC50 falls from 30 nM to 1.5 nM (20-fold). The second is the more potent here.

C=C[C@@H]1C[C@]1(NC(=O)[C@@H]1C[C@@]2(CN1C(=O)[C@@H](NC(=O)C(NC(=O)c1cc(C(C)(C)C)nn1C)C1CCCCC1)C(C)(C)C)C(C)(C)C21CCC1)C(=O)NS(=O)(=O)C1CC1 (stereo partly drawn) [Compound 126, (5R,8S)-7-[(2S)-2-{[{[(3-tert-butyl-1-methyl-1H-pyrazol-5-yl)carbonyl]amino}(cyclohex-yl)acetyl]amino}-3,3-dimethylbutanoyl]-N-{(1R,2S)-1-[(cyclopropylsulfonyl)carba-moyl]-2-vinylcyclopropyl}-10,10-dimethyl-7-azadispiro[3.0.4.1]decane-8-carboxamide] and C=C[C@@H]1C[C@]1(NC(=O)[C@@H]1C[C@@]2(CN1C(=O)[C@@H](NC(=O)C(NC(=O)c1nccc3ccccc13)C1CCCCC1)C(C)(C)C)C(C)(C)C21CCC1)C(=O)NS(=O)(=O)C1CC1 (stereo partly drawn) [Compound 127, (5R,8S)-7-[(2S)-2-({cyclohexyl[(isoquinolin-1-ylcarbonyl)amino]acetyl}amino)-3,3-dimethylbutanoyl]-N-{(1R,2S)-1-[(cyclopropylsulfonyl)carba-moyl]-2-vinylcyclopropyl}-10,10-dimethyl-7-azadispiro[3.0.4.1]decane-8-carboxamide] are the same in IC50: 8 nM for the first, 8 nM for the second.

Going from C=C[C@H]1C[C@@]1(NC(=O)[C@@H]1C[C@@]2(CN1C(=O)[C@@H](NC(=O)[C@@H](NC(=O)c1ccccc1N(C)C)C(C)(C)C)C(C)(C)C)C(C)(C)C21CCC1)C(=O)NS(=O)(=O)C1CC1 [Compound 130, (5R,8S)-N-{(1S,2R)-1-[(cyclopropylsulfonyl)carba-moyl]-2-vinylcyclopropyl}-7-[(2S)-2-{[(2S)-2-{[2-(dimethylamino)benzoyl]amino}-3,3-dimethylbutanoyl]amino}-3,3-dimethylbutanoyl]-10,10-dimethyl-7-azadispiro[3.0.4.1]decane-8-carboxamide] to C=C[C@@H]1C[C@]1(NC(=O)[C@@H]1C[C@@]2(CN1C(=O)[C@@H](NC(=O)[C@@H](NC(=O)c1c(C)nn(C)c1C)C(C)(C)C)C(C)(C)C)C(C)(C)C21CCC1)C(=O)NS(=O)(=O)C1CC1 [Compound 137, (5R,8S)-N-{(1R,2S)-1-[(cyclopropylsulfonyl)carba-moyl]-2-vinylcyclopropyl}-7-[(2S)-2-{[(2S)-3,3-dimethyl-2-{[(1,3,5-trimethyl-1H-pyrazol-4-yl)carbonyl]amino}butanoyl]amino}-3,3-dimethylbutanoyl]-10,10-dimethyl-7-azadispiro[3.0.4.1]decane-8-carboxamide], the IC50 rises from 5.5 nM to 30 nM (5.5-fold). The first is the more potent here.

Compared with C=C1CC(NC(=O)[C@@H]2C[C@@]3(CN2C(=O)[C@@H](NC(=O)[C@@H](NC(=O)[C@@H]2CCCCN2C(C)C)C(C)(C)C)C(C)(C)C)C(C)(C)C32CCC2)(C(=O)NS(=O)(=O)C2CC2)C1 [Compound 132, (5R,8S)-N-{1-[(cyclopropylsulfonyl)carba-moyl]-3-methylenecyclobutyl}-7-[(2S)-2-{[(2S)-2-({[(2S)-1-isopropylpiperidin-2-yl]carbonyl}amino)-3,3-dimethylbutanoyl]amino}-3,3-dimethylbutanoyl]-10,10-dimethyl-7-azadispiro[3.0.4.1]decane-8-carboxamide], CC(C)N1CCCC[C@H]1C(=O)N[C@H](C(=O)N[C@H](C(=O)N1C[C@]2(C[C@H]1C(=O)NC1(C(=O)NS(=O)(=O)C3CC3)CCC1)C(C)(C)C21CCC1)C(C)(C)C)C(C)(C)C [Compound 133, (5R,8S)-N-{1-[(cyclopropylsulfonyl)carba-moyl]cyclobutyl}-7-[(2S)-2-{[(2S)-2-({[(2S)-1-isopropylpiperidin-2-yl]carbonyl}amino)-3,3-dimethylbutanoyl]amino}-3,3-dimethylbutanoyl]-10,10-dimethyl-7-azadispiro[3.0.4.1]decane-8-carboxamide] is 2.9-fold lower in IC50: 1300 nM for the first, 450 nM for the second. The second is the more potent here.

First: CC[C@@H]1C[C@]1(NC(=O)[C@@H]1C[C@@]2(CN1C(=O)[C@@H](NC(=O)[C@@H](NC(=O)c1cnccn1)C(C)(C)C)C(C)(C)C)C(C)(C)C21CCC1)C(=O)NS(=O)(=O)C1CC1 [Compound 134, (5R,8S)-N-{(1R,2R)-1-[(cyclopropylsulfonyl)carba-moyl]-2-ethylcyclopropyl}-7-[(2S)-2-({(2S)-3,3-dimethyl-2-[(pyrazin-2-ylcarbonyl)amino]butanoyl}amino)-3,3-dimethylbutanoyl]-10,10-dimethyl-7-azadispiro[3.0.4.1]decane-8-carboxamide]
Second: C=C[C@@H]1C[C@]1(NC(=O)[C@@H]1C[C@@]2(CN1C(=O)[C@@H](NC(=O)[C@@H](NC(=O)[C@H]1CCN1C(C)C)C(C)(C)C)C(C)(C)C)C(C)(C)C21CCC1)C(=O)NS(=O)(=O)C1CC1 [Compound 135, (5R,8S)-N-{(1R,2S)-1-[(cyclopropylsulfonyl)carba-moyl]-2-vinylcyclopropyl}-7-[(2S)-2-{[(2S)-2-({[(2R)-1-isopropylazetidin-2-yl]carbonyl}amino)-3,3-dimethylbutanoyl]amino}-3,3-dimethylbutanoyl]-10,10-dimethyl-7-azadispiro[3.0.4.1]decane-8-carboxamide]
The IC50 of the first is 2.7-fold higher: 40 nM for the first, 15 nM for the second. The second is the more potent here.
